Measured values reported in BindingDB's records for doi:10.1186/1471-2091-15-9 (International Centre for Genetic Engineering and …, 2014).
Counter-ions that a name gives are not always drawn.

Biological target: T1, DNA helicase [35-727] (Plasmodium falciparum, UniProt Q8I3W6)
T1 construct: 35-727
T1 sequence (Q8I3W6 whole entry): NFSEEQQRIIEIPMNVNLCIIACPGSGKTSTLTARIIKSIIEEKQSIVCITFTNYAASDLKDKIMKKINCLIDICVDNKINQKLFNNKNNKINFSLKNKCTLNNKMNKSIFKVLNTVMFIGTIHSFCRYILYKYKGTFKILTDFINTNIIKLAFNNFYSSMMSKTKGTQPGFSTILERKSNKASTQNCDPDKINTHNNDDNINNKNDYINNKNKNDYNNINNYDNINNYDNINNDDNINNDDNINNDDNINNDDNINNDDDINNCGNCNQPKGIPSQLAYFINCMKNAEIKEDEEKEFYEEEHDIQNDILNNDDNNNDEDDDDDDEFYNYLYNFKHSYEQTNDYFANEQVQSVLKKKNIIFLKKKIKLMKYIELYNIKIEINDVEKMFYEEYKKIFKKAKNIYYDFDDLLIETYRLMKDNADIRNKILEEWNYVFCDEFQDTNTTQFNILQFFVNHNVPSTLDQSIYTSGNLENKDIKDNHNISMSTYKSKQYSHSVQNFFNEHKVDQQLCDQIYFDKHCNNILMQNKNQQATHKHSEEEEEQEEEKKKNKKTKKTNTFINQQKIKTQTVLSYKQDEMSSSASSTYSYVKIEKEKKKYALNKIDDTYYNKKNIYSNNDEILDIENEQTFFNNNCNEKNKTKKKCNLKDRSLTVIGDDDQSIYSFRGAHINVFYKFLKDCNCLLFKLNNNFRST
Test: DNA-Dependent ATPase Assay
Details: pH 8; 37 °C
Description: The hydrolysis of ATP catalyzed by PfUDN was assayed by measuring the formation of Pi from [γ-32P] ATP. The reaction mixture of 10 μl contained [γ-32P] ATP (specific activity 222 TBq. mmol^−1) and cold ATP (1 mM), ATPase buffer (20 mM Tris-HCl, pH 8.0, 8 mM DTT, 1.0 mM MgCl2, 20 mM KCl and 16 μg/ml BSA), purified PfUDN and 50 ng or 100 ng of M13 mp19 ssDNA. The reaction mixtures were incubated at 37°C for 60 min.

SMILES | IC50 [µM]
CC[n+]1c(-c2ccccc2)c2cc(N)ccc2c2ccc(N)cc21 [AB00053825_07] | 3.1
COc1cccc2c1C(=O)c1c(O)c3c(c(O)c1C2=O)C[C@@](O)(C(C)=O)C[C@@H]3O[C@H]1C[C@H](N)[C@H](O)[C@H](C)O1 [(7S,9S)-9-acetyl-7-[(2R,4S,5S,6S)-4-amino-5-hydroxy-6-methyloxan-2-yl]oxy-6,9,11-trihydroxy-4-methoxy-8,10-dihydro-7H-tetracene-5,12-dione;hydrochloride] | 4.4
